Measurements from patent US10969382B2, “Systems and methods for assessing data collected from an electrically active cell culture” (Axion BioSystems, Inc., priority 2015, dated 2021).
“Also recorded” adds a separate entry of the source.

System: cardiomyocyte culture
Experiment: Global conduction velocity (GCV) of beat propagation measured on a microelectrode array
Assay type: cell-based
Conditions: increasing flecainide concentration; FIG. 8C
From the text: example, within 30 ms). FIG. 6A is a representation of an array of electrodes 22 of an exemplary well of a MEA 20 having electrodes 22 spaced 200 μm from one another in the vertical and horizontal directions. It is to be appreciated that the number of electrodes 22 and the spacing shown in FIG. 6A are for example purposes only and greater or fewer electrodes 22 can be used and the spacing can also differ from what is shown. […] The beat timestamps, or arrival times, on the neighboring beat receiving electrodes can be used to generate a data array of delay times, as shown in Table 1. […] For the exemplary beat shown in Table 1, the beat starting electrode 30 is represented by the data point in column 1, row 2. The delay time (tdi) at each electrode 22 is the difference between the beat arrival time (ti) on that particular beat receiving electrode 22 and the beat start time, to, at the beat starting electrode 30. tdi=ti−t0 The velocity at which a beat propagates through the cellular network, or the conduction velocity, is a useful parameter for assessing a cardiomyocyte culture. However, the conduction velocity can vary depending upon the location within the cell culture, and thus it is another example of a parameter that is subject to spatial variability. […]

For `O=C(NCC1CCCCN1)c1cc(OCC(F)(F)F)ccc1OCC(F)(F)F` (stereo not shown) [flecainide], the “conduction velocity using the GCV method” value was “systematically reduced; also recorded: slows”.
